# Residue numbers refer to the chain shown, from its start.
# Experiments:
# SIRT5 wild type [1] = biological target: T1, SIRT5 wild type (Homo sapiens, UniProt Q9NXA8); test: SIRT5 wild type desuccinylation reaction, trypsin coupled fluorescence assay with Ac-SucLys-AMC; type: biochemical; conditions: for IC50: SIRT5 desuccinylation
# T1 construct: SIRT1 (193–747) and SIRT5 (51–301) were cloned into the pLIC-His expression vector; His tag (pLIC-His vector); made in house; host or cells: E. coli BL21(DE3) Star
# T1 sequence (Q9NXA8 51-301): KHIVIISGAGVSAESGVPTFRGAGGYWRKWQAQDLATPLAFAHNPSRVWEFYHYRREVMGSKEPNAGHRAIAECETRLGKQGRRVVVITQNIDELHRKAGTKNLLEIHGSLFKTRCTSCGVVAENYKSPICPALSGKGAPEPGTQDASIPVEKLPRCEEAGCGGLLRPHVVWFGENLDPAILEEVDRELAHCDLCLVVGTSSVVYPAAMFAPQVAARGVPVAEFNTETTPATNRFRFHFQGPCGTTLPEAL
# Experimental: (§1) The sirtuin catalyzed deacetylase and desuccinylase reactions were measured via the trypsin coupled assay system as described by Madsen et al. […] Since trypsin was used as a coupling enzyme, its concentration was optimized to ensure the emergence of minimal or negligible lag-phase prior to the onset of the steady state phase. […] The steady state rates of the enzyme catalyzed reactions were derived from the time dependent changes in the fluorescence signal, and the data were analyzed by the ternary complex kinetic mechanism (Eq 4) via Grafit 4 software.
# (§2) The steady-state kinetic data were fitted globally by the competitive, mixed, and noncompetitive inhibition models using the DYNAFIT software based on the rapid-equilibrium approximation. All the parameters were allowed to float except for the enzyme concentration. The software utilizes several model-discrimination criteria, including the second order Akaike Information Criterion (AIC), so that the best model out of the three different candidates could be identified.
# (§3) Other reaction conditions were the same as described above. The data were fitted by Eq 5 by Grafit 4.0.
# SIRT5 Y102A [2] = biological target: T2, SIRT5 Y102A (Homo sapiens, UniProt Q9NXA8, Y102A); test: SIRT5 Y102A desuccinylation reaction, trypsin coupled assay with Ac-SucLys-AMC; type: biochemical
# T2 construct: SIRT1 (193–747) and SIRT5 (51–301) were cloned into the pLIC-His expression vector; His tag (pLIC-His vector); made in house; host or cells: E. coli BL21(DE3) Star
# T2 sequence (Q9NXA8 51-301 Y102A): T1 sequence (Q9NXA8 51-301) with Y52A
# Experimental: as §1, §2, §3
# SIRT1 [3] = biological target: T3, SIRT1 (Homo sapiens, UniProt Q96EB6); test: SIRT1 desuccinylation reaction, trypsin coupled assay with Ac-SucLys-AMC; type: biochemical; conditions: succinyl substrate
# T3 construct: SIRT1 (193–747) and SIRT5 (51–301) were cloned into the pLIC-His expression vector; His tag (pLIC-His vector); made in house; host or cells: E. coli BL21(DE3) Star
# T3 sequence (Q96EB6 193-747): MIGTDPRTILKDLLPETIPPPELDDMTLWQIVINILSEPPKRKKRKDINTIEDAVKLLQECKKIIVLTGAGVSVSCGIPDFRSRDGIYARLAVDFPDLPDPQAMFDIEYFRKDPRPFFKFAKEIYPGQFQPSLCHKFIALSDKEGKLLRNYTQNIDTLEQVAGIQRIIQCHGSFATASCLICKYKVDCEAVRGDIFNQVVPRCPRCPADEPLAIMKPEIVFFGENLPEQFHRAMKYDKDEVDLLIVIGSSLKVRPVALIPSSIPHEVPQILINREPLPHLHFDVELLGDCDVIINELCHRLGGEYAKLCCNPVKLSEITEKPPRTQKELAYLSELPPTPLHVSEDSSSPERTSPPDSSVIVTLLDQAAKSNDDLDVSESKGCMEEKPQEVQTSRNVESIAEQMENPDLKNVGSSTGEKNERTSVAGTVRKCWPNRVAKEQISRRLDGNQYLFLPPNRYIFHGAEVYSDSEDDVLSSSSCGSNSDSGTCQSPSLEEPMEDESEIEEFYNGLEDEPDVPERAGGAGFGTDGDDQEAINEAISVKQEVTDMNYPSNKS
# Experimental: (§4) The sirtuin catalyzed deacetylase and desuccinylase reactions were measured via the trypsin coupled assay system as described by Madsen et al. The enzyme reactions were carried out at 25°C in 50 mM Tris-HCl assay buffer, pH 8.0, containing 137 mM NaCl, 2.7 mM KCl, 1 mM MgCl2, and 1 mg/mL bovine serum albumin. Since trypsin was used as a coupling enzyme, its concentration was optimized to ensure the emergence of minimal or negligible lag-phase prior to the onset of the steady state phase. The bi-substrate kinetic experiments were performed by varying the concentrations of NAD^+ (from 100 to 500 μM) and Ac-SucLys-AMC or Fluor-de-lys® substrates (from 100 μM to 1200 μM) using 0.8 μM trypsin as the coupling enzyme. The steady state rates of the enzyme catalyzed reactions were derived from the time dependent changes in the fluorescence signal, and the data were analyzed by the ternary complex kinetic mechanism (Eq 4) via Grafit 4 software.
# SIRT5 wild type [4] = biological target: T1, SIRT5 wild type; test: SIRT5 wild type deacetylation reaction, trypsin coupled fluorescence assay with Fluor-de-lys; type: biochemical; conditions: 50 μM EX527; substrate not stated in the sentence (method: 100 μM Fluor-de-lys, 500 μM NAD^+)
# Experimental: as §4
# (§5) The steady-state kinetic data were fitted globally by the competitive, mixed, and noncompetitive inhibition models using the DYNAFIT software based on the rapid-equilibrium approximation. All the parameters were allowed to float except for the enzyme concentration. […]
# SIRT5 Y102A [5] = biological target: T2, SIRT5 Y102A; test: SIRT5 Y102A deacetylation reaction, trypsin coupled assay with Fluor-de-lys; type: biochemical
# Experimental: as §1, §2, §3
# SIRT5 R105I [6] = biological target: T4, SIRT5 R105I (Homo sapiens, UniProt Q9NXA8, R105I); test: SIRT5 R105I deacetylation reaction, trypsin coupled assay with Fluor-de-lys; type: biochemical
# T4 construct: SIRT1 (193–747) and SIRT5 (51–301) were cloned into the pLIC-His expression vector; His tag (pLIC-His vector); made in house; host or cells: E. coli BL21(DE3) Star
# T4 sequence (Q9NXA8 51-301 R105I): T1 sequence (Q9NXA8 51-301) with R55I
# Experimental: as §1, §2, §3
# SIRT5 R105I [7] = biological target: T4, SIRT5 R105I; test: SIRT5 R105I desuccinylation reaction, trypsin coupled assay with Ac-SucLys-AMC; type: biochemical
# Experimental: as §4, §5
# SIRT5 Y102A/R105I [8] = biological target: T5, SIRT5 Y102A/R105I (Homo sapiens, UniProt Q9NXA8, R105I/Y102A); test: SIRT5 Y102A/R105I deacetylation reaction, trypsin coupled assay with Fluor-de-lys; type: biochemical
# T5 construct: SIRT1 (193–747) and SIRT5 (51–301) were cloned into the pLIC-His expression vector; His tag (pLIC-His vector); made in house; host or cells: E. coli BL21(DE3) Star
# T5 sequence (Q9NXA8 51-301 Y102A/R105I): T1 sequence (Q9NXA8 51-301) with Y52A, R55I
# Experimental: as §1, §2, §3
# SIRT5 Y102A/R105I [9] = biological target: T5, SIRT5 Y102A/R105I; test: Isothermal titration calorimetry, binding of EX527 to SIRT5 Y102A/R105I; conditions: ITC
# Experimental: Isothermal titration calorimetric experiment was performed in duplicates on a VP-ITC device (Microcal Inc., Northampton, MA). Prior to the titration experiment, both enzyme and inhibitor were thoroughly degassed under vacuum. The sample cell was filled with 1.8 mL (effective volume = 1.4 mL) of 20 μM Y102A/R105I mutant SIRT5 and 0 or 10 mM NAD^+ in 50 mM HEPES buffer, pH 7.5, containing 100 mM NaCl, 10% glycerol and 1 mM TCEP. […] The data were analyzed by the ITC data analysis module of Origin Software using the single-site binding model as described by Wiseman et al. All the parameters were allowed to vary during the curve-fitting. […] The binding free energy (ΔG°) and the entropic (ΔS°) changes were calculated by Eqs 6 and 7, respectively ΔG°=−RTlnKa (6) ΔS°=ΔH°−ΔG°/T (7)
# The latter value translates to the ΔG° of binding as being equal to −7.3 ± 0.1 kcal/mol. Given the ΔH° and ΔG° values, the TΔS° was calculated to be 2.03 kcal/mol.
# wild type SIRT5 = biological target: T6, wild type SIRT5 (Homo sapiens, UniProt Q9NXA8); test: Isothermal titration calorimetry, binding of EX527 to wild type SIRT5; conditions: ITC, either in the absence or the presence of NAD^+ (10 mM)
# T6 construct: SIRT1 (193–747) and SIRT5 (51–301) were cloned into the pLIC-His expression vector; His tag (pLIC-His vector); made in house; host or cells: E. coli BL21(DE3) Star
# T6 sequence (Q9NXA8 51-301): T1 sequence (Q9NXA8 51-301)
# SIRT5 = test system: SIRT5; set-up: method as in PMID 22583019; conditions: same succinylated substrate, fixed substrate concentration; read-out: Km,NAD (apparent); cited from earlier work
# SIRT1 [10] = biological target: T3, SIRT1; test: SIRT1 deacetylation reaction, trypsin coupled assay with Fluor-de-lys; type: biochemical; conditions: for IC50: SIRT1 deacetylation
# Experimental: as §1, §2, §3
# SIRT5-substrate complex = biological target: T7, SIRT5-substrate complex (Homo sapiens, UniProt Q9NXA8); test: Isothermal titration calorimetry, binding of nicotinamide to SIRT5-substrate complex; conditions: ITC, 20 μM SIRT5 in the presence of 1 mM Ac-Suclys-AMC
# T7 construct: SIRT1 (193–747) and SIRT5 (51–301) were cloned into the pLIC-His expression vector; His tag (pLIC-His vector); made in house; host or cells: E. coli BL21(DE3) Star
# T7 sequence (Q9NXA8 51-301): T1 sequence (Q9NXA8 51-301)
# Experimental: Isothermal titration calorimetric experiment was performed in duplicates on a VP-ITC device (Microcal Inc., Northampton, MA). Prior to the titration experiment, both enzyme and inhibitor were thoroughly degassed under vacuum. […] The data were analyzed by the ITC data analysis module of Origin Software using the single-site binding model as described by Wiseman et al. All the parameters were allowed to vary during the curve-fitting. […] The binding free energy (ΔG°) and the entropic (ΔS°) changes were calculated by Eqs 6 and 7, respectively ΔG°=−RTlnKa (6) ΔS°=ΔH°−ΔG°/T (7)
# (TIF) Click here for additional data file.
# [11] = desuccinylation, succinyl substrate
# [12] = deacetylation, acetylated substrate, at 800 μM nicotinamide
# [13] = deacetylation, against NAD^+, 500 μM Fluo-de-lys, NAD^+ 200 to 1300 μM
# [14] = deacetylation, against NAD^+, 100 μM Fluo-de-lys, NAD^+ 40 to 300 μM
smiles,measurement,setting,value
CC(=O)N[C@@H](CCCCNC(=O)CCC(=O)O)C(=O)Nc1ccc2c(C)cc(=O)oc2c1 [Ac-SucLys-AMC],kcat,SIRT5 wild type [1]; [11],383.2 ± 38.3 ×10^−5 s^-1
same,Km,"SIRT5 wild type [1]; desuccinylation, succinyl substrate, 25°C, pH 8.0, read-out: Km,sub",290 ± 29 µM
same,kcat,SIRT5 Y102A [2]; [11],27.4 ± 4.9 ×10^−5 s^-1
same,Km,"SIRT5 Y102A [2]; desuccinylation, succinyl substrate, read-out: Km,sub",300 ± 54 µM
same,desuccinylase activity,SIRT1 [3],no detectable desuccinylase activity
"NC(=O)C1CCCc2c1[nH]c1ccc(Cl)cc21 (centres unmarked) [EX527, 6-chloro-2,3,4,9-tetrahydro-1H-carbazole-1-carboxamide]",inhibition by EX527,SIRT5 wild type [4],not inhibited
same,inhibition at 50 µM,SIRT5 Y102A [5],~14%
same,inhibition by EX527,"SIRT5 Y102A [2]; 50 μM EX527, succinylated substrate",no inhibition
same,inhibition at 50 µM,SIRT5 R105I [6],~22%
same,inhibition at 50 µM,SIRT5 R105I [7],~22%
same,IC50,SIRT5 Y102A/R105I [8],0.0217 ± 0.001 mM
same,binding,SIRT5 Y102A/R105I [9]; in the absence of NAD^+,binds weakly
same,ΔH°,"SIRT5 Y102A/R105I [9]; presence of 10 mM NAD^+, pH 7.5, 25°C",-22.2 ± 0.42 kJ/mol
same,stoichiometry n,"SIRT5 Y102A/R105I [9]; presence of 10 mM NAD^+, pH 7.5, 25°C, single site binding model",1.2
same,ΔG° of binding,"SIRT5 Y102A/R105I [9]; presence of 10 mM NAD^+, calculated from Ka",-30.5 ± 0.42 kJ/mol
same,TΔS°,"SIRT5 Y102A/R105I [9]; presence of 10 mM NAD^+, calculated from ΔH° and ΔG°",8.49 kJ/mol
same,binding (heat signals),wild type SIRT5,only miniscule heat signals
"NC(=O)c1ccc[n+]([C@@H]2O[C@H](COP(=O)([O-])OP(=O)(O)OC[C@H]3O[C@@H](n4cnc5c(N)ncnc54)[C@H](O)[C@@H]3O)[C@@H](O)[C@H]2O)c1 [NAD, nicotinamide adenine dinucleotide]",Km,SIRT5,150 ± 45 µM
NC(=O)c1cccnc1 [Nicotinamide],Inhibition Mode,"SIRT5 wild type [1]; desuccinylation, against NAD^+, 100 μM Ac-SucLys-AMC, NAD^+ 40 to 300 μM",Competitive
same,% inhibition,SIRT5 Y102A [5]; [12],"N/A, 36% inhibition at 800μM"
same,inhibition at 800 µM,SIRT5 Y102A [5]; [12],~36%
same,Inhibition Mode,"SIRT5 Y102A [2]; desuccinylation, against NAD^+, 500 μM Ac-SucLys-AMC, NAD^+ 70 to 800 μM",Competitive
same,inhibition at 800 µM,SIRT5 R105I [6],40%
same,Inhibition Mode,SIRT5 Y102A/R105I [8]; [13],Mixed
same,Ki’ (mixed inhibition),SIRT5 Y102A/R105I [8]; [13],0.2672 ± 0.0524 mM
same,Inhibition Mode,SIRT1 [10]; [14],Mixed
same,Ki’ (mixed inhibition),SIRT1 [10]; [14],0.3405 ± 0.1024 mM
same,Ka,SIRT5-substrate complex,(2.5 ± 0.3) × 10^4 M^-1
NC(=O)c1ccncc1 [isonicotinamide],IC50,SIRT5 wild type [1]; in the presence of 50 μM NAD^+,11.1 ± 2.2 mM
same,IC50,SIRT5 wild type [1]; in the presence of 5 mM NAD^+,17.1 ± 4 mM
same,IC50,SIRT1 [10]; in the presence of 50 μM NAD^+,7 ± 2.9 mM
same,IC50,SIRT1 [10]; in the presence of 5 mM NAD^+,8.9 ± 3.3 mM

# — paper PMC4811591, “Role of the Substrate Specificity-Defining Residues of Human SIRT5 in Modulating the Structural Stability and Inhibitory Features of the Enzyme” (PLoS ONE, 2016)
